Measurements as given in patent US20260234165A1, “MACROCYCLIC COMPOUNDS, PREPARATION METHOD THEREFOR, AND USE THEREOF” (GENFLEET THERAPEUTICS (SHANGHAI) INC., priority 2004, published 2026).
Structures can show the parent of a compound that is named as a salt. Where two headings read alike, the source gives them in different places.

What was measured:
Format in all cases: cell-based, human
[1] = test system: p-ERK in AsPC-1 cells (KRAS G12D mutation); assay: Cell p-ERK assay (HTRF) in AsPC-1 cells
How it was run: (§1)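 Cells are plated (AsPC-1 at 10000, NCI-H441 at 20000 per well) and cultured overnight. Next day compound is added in a 3.16-fold dilution series with 0.1% DMSO and left 3 h. After lysis, p-ERK antibodies incubate 4 h before HTRF reading and four-parameter IC50 fitting.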

[2] = test system: NCI-H441 cells; assay: 3D cell proliferation assay (CellTiter Glo-3D), NCI-H441; conditions: medium with 2% FBS, read-out: H441 AP IC50
How it was run: (§2)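 Five-day treatment of NCI-H441 or AsPC-1 cells (800/well, 2% FBS RPMI-1640, 0.1% DMSO) with graded compound concentrations; ATP content by CellTiter-Glo 3D; IC50 fitted.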

[3] = test system: p-ERK in NCI-H441 cells (KRAS G12V mutation); assay: Cell p-ERK assay (HTRF) in NCI-H441 cells
How it was run: as §1

[4] = test system: AsPC-1 cells (KRAS G12D mutation); assay: 3D cell proliferation assay (CellTiter Glo-3D), AsPC-1; conditions: medium with 2% FBS, read-out: AsPC-1 AP IC50
How it was run: as §2

[5] = AsPC-1 cells, 3 h compound incubation, HTRF p-ERK T202/Y204, read-out: AsPC-1 p-ERK IC50
[6] = 3D cell proliferation (CellTiter Glo-3D)
[7] = NCI-H441 cells, 3 h compound incubation, HTRF p-ERK T202/Y204, read-out: H441 p-ERK IC50
[8] = Homo sapiens, ASPC1, 3 h, AsPC-1 cells, 3 h compound incubation, HTRF p-ERK T202/Y204, read-out: AsPC-1 p-ERK IC50
[9] = Homo sapiens, NCI-H441, 3D cell proliferation (CellTiter Glo-3D)
[10] = Homo sapiens, NCI-H441, 3 h, NCI-H441 cells, 3 h compound incubation, HTRF p-ERK T202/Y204, read-out: H441 p-ERK IC50
[11] = Homo sapiens, ASPC1, 3D cell proliferation (CellTiter Glo-3D)

Compound | IC50 [1, 5] | IC50 [2, 6] | IC50 [3, 7] | IC50 [4, 6] | IC50 [1, 8] | IC50 [2, 9] | IC50 [3, 10] | IC50 [4, 11] | IC50 ([1]; Homo sapiens, ASPC1, 3 h, read-out: AsPC-1 p-ERK IC50(nM)) | IC50 ([2]; Homo sapiens, 3D cell proliferation (CellTiter Glo-3D)) | IC50 ([3]; Homo sapiens, NCI-H441, 3 h, read-out: H441 p-ERK IC50(nM))
CCn1c(-c2cc(N3CCN(C)CC3)cnc2[C@H](C)OC)c2c3cc(ccc31)-c1csc(n1)C[C@H](Nc1cc(C)cnn1)C(=O)N1CCC[C@H](N1)C(=O)OCC(C)(C)C2 [Compound Z559, (6^3S,4S,Z)-1^1-ethyl-(R3)-1^2-(2-((S)-1-methoxyethyl)-5-(4-methylpiperazin-1-yl)pyridin-3-yl)-10,10-dimethyl-4-((5-methylpyridazin-3-yl)amino)-6^1,6^2,6^3,6^4,6^5,6^6-hexahydro-1^1H-8-oxa-2(4,2)-thiazola-1(5,3)-indola-6(1,3)-pyridazinacycloundecaphane-5,7-dione] |  |  |  |  | 45 nM | 17.5 nM | 14.6 nM | 47.5 nM |  |  | 
CCn1c(-c2cc(C#CCN3CCCOCC3)c[n+]([O-])c2[C@H](C)OC)c2c3cc(ccc31)-c1csc(n1)C[C@H](NC(=O)[C@H]1[C@H](C)[C@@H]1C)C(=O)N1CCC[C@H](N1)C(=O)OCC(C)(C)C2 [Compound Z914, 5-(3-(1,4-oxazepan-4-yl)prop-1-yn-1-yl)-3-((6^3S,4S,Z)-4-((r,2R,3S)-2,3-dimethylcyclopropane-1-carboxamido)-1^1-ethyl-10,10-dimethyl-5,7-dioxo-6^1,6^2,6^3,6^4,6^5,6^6-hexahydro-1^1H-8-oxa-2(4,2)-thiazola-1(5,3)-indola-6(1.3)-pyridazinacycloundecaphane-1^2-yl)-2-((S)-1-methoxyethyl)pyridine-1-oxide] |  | 0.26 nM |  | 0.58 nM | 0.25 nM |  | 0.46 nM |  |  |  | 
C=C1CN(CC#Cc2cnc([C@H](C)OC)c(-c3c4c5cc(ccc5n3CC)-c3csc(n3)C[C@H](NC(=O)[C@H]3[C@H](C)[C@@H]3C)C(=O)N3CCC[C@H](N3)C(=O)OCC(C)(C)C4)c2)C1 [Compound Z1034, (1 r,2R,3S)—N-((6^3S,4S,Z)-1^1-ethyl-1^2-(2-((S)-1-methoxyethyl)-5-(3-(3-methyleneazetidine-1-yl)prop-1-Sn-1-yl)pyridin-3-yl)-10,10-dimethyl-5,7-dioxo-6^1,6^2,6^3,6^4,6^5,6^6-hexahydro-1^1H-8-oxa-2(4.2)-thiazola-1(5,3)-indola-6(1.3)-pyridazinacycloundecaphane-4-yl)-2,3-dimethylcyclopropane-1-carboxamide] | 0.33 nM | 0.28 nM | 0.29 nM | 0.2 nM |  |  |  |  |  |  | 
CCn1c(-c2cc(C#CCN3CCC(N=S(C)(C)=O)CC3)cnc2[C@H](C)OC)c2c3cc(ccc31)-c1csc(n1)C[C@H](NC(=O)[C@H]1[C@H](C)[C@@H]1C)C(=O)N1CCC[C@H](N1)C(=O)OCC(C)(C)C2 [Compound Z1045] |  |  |  |  | 0.36 nM | 0.17 nM | 0.19 nM | 0.21 nM |  |  | 
CCn1c(-c2cc(C#CCN3CC(N=S(C)(C)=O)C3)cnc2[C@H](C)OC)c2c3cc(ccc31)-c1csc(n1)C[C@H](NC(=O)[C@H]1[C@H](C)[C@@H]1C)C(=O)N1CCC[C@H](N1)C(=O)OCC(C)(C)C2 [Compound Z1046, (2R,3S)—N-((6^3S,4S,Z)-1^2-(5-(3-(3-((dimethyl(oxo)-λ^6-sulfaneylidene)amino)azetidin-1-yl)prop-1-yn-1-yl)-2-((S)-1-methoxyethyl)pyridin-3-yl)-1^1-ethyl-10,10-dimethyl-5,7-dioxo-6^1,6^2,6^3,6^4,6^5,6^6-hexahydro-1^1H-8-oxa-2(4,2)-thiazola-1(5,3)-indola-6(1,3)-pyridazinacycloundecaphane-4-yl)-2,3-dimethylcyclopropane-1-carboxamide] |  |  |  |  | 0.71 nM | 0.34 nM | 0.34 nM | 0.63 nM |  |  | 
CCn1c(-c2cc(C#CCN3CCC(C#N)(c4cccc[n+]4[O-])CC3)cnc2[C@H](C)OC)c2c3cc(ccc31)-c1csc(n1)C[C@H](NC(=O)[C@H]1[C@H](C)[C@@H]1C)C(=O)N1CCC[C@H](N1)C(=O)OCC(C)(C)C2 [Compound Z1054, 2-(4-cyano-1-(3-(5-((6^3S,4S,Z)-4-((2R,3S)-2 3-dimethylcyclopropane-1-carboxamido)-1^1-ethyl-10,10-dimethyl-5,7-dioxo-6^1,6^2,6^3,6^4,6^5,6^6-hexahydro-1^1H-8-oxa-2(4.2)-thiazola-1(5,3)-indola-6(1,3)-pyridazinacycloundecaphane-12-yl)-6-((S)-1-methoxyethyl)pyridin-3-yl)prop-2-yn-1-yl)piperidin-4-yl)pyridine 1-oxide formate] |  |  |  |  |  |  |  | 0.08 nM | 0.16 nM | 0.15 nM | 0.25 nM

The next lines start with results.

IC50 [1, 5] | IC50 [2, 6] | IC50 [3, 7] | IC50 [4, 6] | IC50 [1, 8] | IC50 [2, 9] | IC50 [3, 10] | IC50 [4, 11] | Compound | IC50 ([1]; Homo sapiens, ASPC1, 3 h, read-out: AsPC-1 p-ERK IC50(nM)) | IC50 ([2]; Homo sapiens, 3D cell proliferation (CellTiter Glo-3D)) | IC50 ([3]; Homo sapiens, NCI-H441, 3 h, read-out: H441 p-ERK IC50(nM))
0.21 nM | 0.34 nM | 0.33 nM | 0.45 nM |  |  |  |  | CCn1c(-c2cc(OCC3(N4CCS(=O)(=O)CC4)CC3)cnc2[C@H](C)OC)c2c3cc(ccc31)-c1csc(n1)C[C@H](NC(=O)[C@H]1[C@H](C)[C@@H]1C)C(=O)N1CCC[C@H](N1)C(=O)OCC(C)(C)C2 [Compound Z449, (1r,2R,3S)—N-((6^3S,4S,Z)-1^2-(5-((1-(1,1-dioxidothiomorpholino)cyclopropyl)methoxy)-2-((S)-1-methoxyethyl)pyridin-3-yl)-1^1-ethyl-10,10-dimethyl-5,7-dioxo-6^1,6^2,6^3,6^4,6^5,6^6-hexahydro-1^1-hydrogen-8-oxa-2(4,2)-thiazola-1(5,3)-indola-6(1,3)-pyridazinacycloundecaphane-4-yl)-2,3-dimethylcyclopropane-1-carboxamide] |  |  | 
1.45 nM | 1 nM | 1.14 nM | 2.4 nM |  |  |  |  | CCn1c(-c2cc(CCN3CCS(=O)(=O)CC3)cnc2[C@H](C)OC)c2c3cc(ccc31)-c1csc(n1)C[C@H](NC(=O)[C@H]1[C@H](C)[C@@H]1C)C(=O)N1CCC[C@H](N1)C(=O)OCC(C)(C)C2 [Compound Z485A, (1r,2R,3S)—N-((6^3S,4S,Z)-1^2-(5-(2-(1,1-dioxidothiomorpholino)ethyl)-2-((S)-1-methoxyethyl)pyridin-3-yl)-1-ethyl-10,10-dimethyl-5,7-dioxo-6^1,6^2,6^3,6^4,6^5,6^6-hexahydro-1^1H-8-oxa-2(4,2)-thiazola-1(5,3)-indola-6(1,3)-pyridazinacycloundecaphane-4-yl)-2,3-dimethylcyclopropane-1-carboxamide] |  |  | 
0.54 nM | 0.36 nM | 0.45 nM | 1.12 nM |  |  |  |  | CCn1c(-c2cc(OCCN3CCS(=O)(=O)CC3)cnc2[C@H](C)OC)c2c3cc(ccc31)-c1csc(n1)C[C@H](NC(=O)C(C)C(C)C)C(=O)N1CCC[C@H](N1)C(=O)OCC(C)(C)C2 (stereo partly drawn) [Compound Z607, N-((6^3S,4S,Z)—(R4)-1^2(5-(2-(1,1-dioxidothiomorpholino)ethoxy)-2-((S)-1-methoxyethyl)pyridin-3-yl)-1^1-ethyl-10,10-dimethyl-5,7-dioxo-6^1,6^2,6^3,6^4,6^5,6^6-hexahydro-1^1H-8-oxa-2(4,2)-thiazola-1(5,3)-indola-6(1,3)-pyridazinacycloundecaphane-4-yl)-2,3-dimethylbutanamide] |  |  | 
2.6 nM | 1.31 nM | 1.6 nM | 2.97 nM |  |  |  |  | CCn1c(-c2cc(OCC(C)(C)N3CCS(=O)(=O)CC3)cnc2[C@H](C)OC)c2c3cc(ccc31)-c1csc(n1)C[C@H](NC(=O)[C@H]1[C@H](C)[C@@H]1C)C(=O)N1CCC[C@H](N1)C(=O)OCC(C)(C)C2 [Compound Z667A] |  |  | 
 |  |  |  | 0.11 nM | 0.29 nM | 0.13 nM | 0.13 nM | CCn1c(-c2cc(C#CCN3CCN(C)S(=O)(=O)CC3)cnc2[C@H](C)OC)c2c3cc(ccc31)-c1csc(n1)C[C@H](NC(=O)[C@H]1[C@H](C)[C@@H]1C)C(=O)N1CCC[C@H](N1)C(=O)OCC(C)(C)C2 [Compound Z847, (1r,2R,3S)—N-((6^3S,4S,Z)—1′-ethyl-(2-((S)-1-methoxyethyl)-5-(3-(2-methyl-1,1-dioxido-1,2,5-thiadiazepan-5-yl)prop-1-yn-1-yl)pyridin-3-yl)-10,10-dimethyl-5,7-dioxo-6^1,6^2,6^3,6^4,6^5,6^6-hexahydro-1^1H-8-oxa-2(4,2)-thiazola-1(5,3)-indola-6(1,3)-pyridazinacycloundecaphane-4-yl)-2,3-dimethylcyclopropane-1-carboxamide] |  |  | 
